This note sets out measurements from patent US20100267638A1, “EXOSITE-DIRECTED THROMBIN INHIBITORS” (CLEVELAND STATE UNIVERSITY, priority 2003, published 2010).

Like-named read-outs stand apart in the source and are kept apart here. No end group written: not given here.

Test [1] in a line: Clotting time as a function of peptide concentration (FIG. 12). Conditions: peptide 500 nM. An excerpt:
FIG. 12 is a graph illustrating clotting time as a function of concentration of various peptides of interest as follows: DYDYQ (SEQ ID NO. 11) (filled squares); DYDYQ (1, 2) (or as designated in shorthand form, D5Q1,2) (SEQ ID NO. 9) (filled triangles); DYDYQ-1 (SEQ ID NO. 7) (filled inverted triangles); and DYDYQ-2 (SEQ ID NO. 8) (filled diamonds).

A further test addresses T1, prothrombin (Homo sapiens, UniProt P00734).
T1 construct: purchased Haematologic Technologies Inc. (Essex Junction, Vt.)
As to the kind of experiment: KD of peptide for prothrombin, from kinetics of prothrombinase inhibition. The test is classed as biochemical. From the text: The mechanism of inhibition of prothrombinase by the hirudin-like peptides HC3 and HC4 was addressed by investigating the effect of the peptides on the kinetic parameters of the enzymatic complex (Km and Vmax). For the sake of simplicity only the results obtained with HC4 are shown (FIG. 2C). In FIG. 2C, the data are plotted as V0 (initial velocity, in arbitrary units) as a function of increasing prothrombin concentration in the presence of increasing concentrations of HC4. The lines drawn represent the best fit through the points with an R^2 of 0.99. The concentrations of HC4 used in the experiments are as follows: control no peptide (filled squares), 0.5 μM peptide (filled circles), 1 μM peptide (filled inverted triangles), 1.5 μM peptide (filled diamonds), and 2 μM peptide (filled triangles). […]
In FIG. 3B, the data are plotted as V0 (initial velocity, in arbitrary units) as a function of increasing prothrombin concentration in the presence of increasing concentrations of peptide DYDYQ. […] The kinetic constants calculated from the data presented in this graph were used to calculate the kcat reported in FIG. 7 assuming a final concentration of 4 nM prothrombinase. […]

For another test, the target named is thrombin (Homo sapiens, UniProt P00734). As to the kind of experiment: Activation of plasma factor V by thrombin preincubated with peptide (SDS-PAGE, immunoblotting). Details: Factor Xa cleaves prothrombin to form thrombin; purchased Haematologic Technologies Inc. (Essex Junction, Vt.). The test is classed as biochemical. Particulars: thrombin 1 nM preincubated with 100 μM peptide, factor V 250 nM. The procedure:
Gel Electrophoresis and western blotting. Sodium dodecyl sulfate polyacrylamide gel electrophoresis (SDS-PAGE) analyses were performed using 4-12% gradient gels according to the method of Laemmli. In several experiments, proteins were transferred to polyvinylidene difluoride (PVDF) membranes according to the method described by Towbin et al. After transfer to nitrocellulose, factor V heavy and light chain(s) were detected using the appropriate monoclonal and polyclonal antibodies. Immunoreactive fragments were visualized with chemiluminescence.
Factor V (250 nM) was incubated with thrombin (1 nM). And FIG. 4B illustrates thrombin (1 nM) was preincubated with 100 μM peptide DYDYQ and the mixture was added to factor V (250 nM). […] Fragments were identified following staining with monoclonal antibody αHFV#17 that recognizes an epitope between amino acid residues 307-506 of factor V and chemiluminescence as described. Lane 1 in both panels depicts aliquots of the mixture withdrawn from the reaction before the addition of thrombin or thrombin/peptide mixture while lanes 2-7 show aliquots of the reaction mixture withdrawn at 30 sec, 1 min, 3 min, 5 min, 10 min, 15 min following the addition of thrombin alone or of thrombin/peptide mixture. The time of incubation is shown at the bottom of the figure. Position of the molecular weight markers is indicated at left.

For orientation: Kd means the concentration at which binding is half-saturated. For the substance DYDYQ [DYDYQ, Asp-Tyr-Asp-Tyr-Gln], the clotting time entry in test [1] is reported as “relatively long clotting times”. Besides, the Kd is 850 nM at prothrombin (from Ki of prothrombinase inhibition, read-out: KD for prothrombin) and about 850 nM on prothrombin (kinetic model FIG. 7, read-out: KD of inhibitor interaction with prothrombin). The “inhibition of activation of factor V by thrombin (cleavage at Arg709)” value is reported as “inhibited” on thrombin and “potent inhibitor” against thrombin (listed as pentapeptide).
